Measurements as given in ChEMBL document CHEMBL1126693, “Long-chain-substituted uric acid and 5,6-diaminouracil derivatives as novel agents against free radical processes: synthesis and in vitro activity” (J Med Chem, 1993).
Active and inactive are the calls of the source. The calls are words filed in the database; no cut-off is given here.

Assays:
[1] = species on record: Bos taurus; experiment: Antioxidant activity in bovine heart mitochondria using iron(II) / dihydroxy fumaric acid (DHF); type: functional
[2] = Inhibition time for 20 uM during peroxidation of liposomal suspension of dilinoleoylphosphatidylcholine (DPLC) indicated by DMVN at 40 degree Centigrade
[3] = Inhibition time for 20 uM during peroxidation of methyl linoleate / DMVN in TBA /methanol medium at 40 degree Centigrade
[4] = Reducing activity to scavenge 10 uM 1, 1-diphenylpicrylhydrazyl (DPPH); type: functional
[5] = species on record: Bos taurus; experiment: Tested for antioxidant activity using bovine heart mitochondria and iron(II) / dihydroxy fumaric acid (DHF) at 100 uM; type: functional
[6] = Inhibition time for 20 uM during peroxidation of liposomal suspension of dilinoleoylphosphatidylcholine (DPLC) indicated by DMVN at 40 degree centigrade; inactive
[7] = Inhibition time for 20 uM during peroxidation of methyl linoleate / DMVN in TBA /methanol medium at 40 degree centigrade; inactive
[8] = Reducing activity to scavenge 10 uM 1, 1-diphenylpicrylhydrazyl (DPPH); inactive; type: functional
[9] = Partition coefficient (logP); type: physicochemical; conditions: octanol/water
[10] = Inhibition against peroxidation of liposomal suspension of dilinoleoylphosphatidylcholine (DPLC) indicated by DMVN at 40 degree Centigrade
[11] = Percent inhibition at 100 uM against peroxidation of methyl linoleate / DMVN in TBA /methanol medium at 40 degree Centigrade
[12] = species on record: Bos taurus; experiment: Tested for antioxidant activity using bovine heart mitochondria and iron(II) / dihydroxy fumaric acid (DHF); type: functional
[13] = Percent inhibition at 100 uM against peroxidation of liposomal suspension of dilinoleoylphosphatidylcholine (DPLC) indicated by DMVN at 40 degree Centigrade

Compound | IC50 [1] | T inh [2] | T inh [3] | RC10 [4] | inhibition [5] | also measured
Cc1c(C)c2c(c(C)c1O)CCC(C)(C(=O)O)O2 (centres undefined) [TROLOX] | 5 µM | 15000 s | 195 s | 3.7 µM |  | 
CCCCCCCCCCCCNc1cc(O)nc(O)n1 |  |  |  |  | 2% | T inh [6]: inactive; T inh [7]: inactive; RC10 [8]: inactive
Cn1c(=O)[nH]c(N)c(N)c1=O | 50 µM |  |  | 6 µM |  | 
O=c1[nH]c(=O)c2[nH]c(=O)[nH]c2[nH]1 [URIC ACID] |  |  |  |  |  | logP [9]: -2.91
CCCCCCCCCCCCNc1c(N)n(Cc2ccccc2)c(=O)[nH]c1=O | 0.67 µM |  |  | 6.5 µM |  | 
Cn1c(=O)[nH]c(=O)c2c1[nH]c(=O)n2C |  |  |  |  | 5% | RC10 [8]: inactive
CCCCCCCCn1c(N)c(N)c(=O)[nH]c1=O | 0.62 µM | 3350 s | 114 s | 6.5 µM |  | logP [9]: 2.05
CCCCCCCCCCCCn1c(=O)cc(N)[nH]c1=O |  |  |  |  | 1% | 
Cc1c(C)c2c(c(C)c1O)CC[C@@](C)(CCC[C@H](C)CCC[C@H](C)CCCC(C)C)O2 |  |  | 190 s | 6 µM | 46% | T inh [6]: inactive
CCCCCCCCCCCCn1c(=O)[nH]c2[nH]c(O)nc2c1=O | 1.25 µM |  |  | 5.2 µM |  | IC50 [10]: 10 µM; inhibition [11]: 25%
CCCCCCCCCCCCn1c(=O)[nH]c(N)c(N)c1=O | 0.26 µM | 4200 s | 144 s | 5.5 µM |  | 
CCCCCCCCCCCCn1c(N)c(N)c(=O)n(C)c1=O | 0.24 µM | 3150 s | 126 s | 5 µM |  | 
Cn1c(=O)[nH]c(=O)c2[nH]c(O)nc21 |  |  |  | 3.5 µM | 11% | inhibition [11]: 10%
Cn1c(O)nc2[nH]c(=O)[nH]c(=O)c21 |  |  |  | 20 µM | 20% | 
CCCCCCCCCCCCNc1nc(O)nc(O)c1N | 0.3 µM | 3500 s | 105 s | 6.4 µM |  | 
CCCCCCn1c(=O)[nH]c(=O)c2[nH]c(O)nc21 |  |  |  | 4.5 µM | 26% | logP [9]: -0.02
CCCCCCCCCCn1c(=O)[nH]c(=O)c2[nH]c(O)nc21 | 3.7 µM |  |  | 3.5 µM |  | logP [9]: 2.04; IC50 [10]: 22 µM; inhibition [11]: 8%
CCCCCCn1c(N)c(N)c(=O)[nH]c1=O |  | 2010 s | 105 s | 6.5 µM |  | logP [9]: 1.01; IC50 [12]: 3.5 µM
CCCCCCCCCCCCCCCCCCNc1[nH]c(=O)n(C)c(=O)c1N | 22 µM | 1750 s | 114 s | 6.2 µM |  | 

Compound | IC50 [1] | T inh [2] | T inh [3] | RC10 [4] | inhibition [5] | also measured
CCCCCCCCCCCCn1c(=O)[nH]c(=O)c2[nH]c(O)nc21 | 1.6 µM |  |  | 3.2 µM |  | logP [9]: 2.9
CCCCCCCCn1c(=O)[nH]c(=O)c2[nH]c(O)nc21 | 28 µM |  |  | 6.5 µM |  | logP [9]: 1.1; IC50 [10]: 37 µM; inhibition [11]: 15%
CCCCCCCCCCCCn1c(=O)n(C)c(=O)c2c1n(C)c(=O)n2C |  |  |  |  | 5% | inhibition [13]: 0.5%; inhibition [11]: 0.7%; RC10 [8]: inactive
Cn1c(=O)c2[nH]c(=O)[nH]c2n(C)c1=O |  |  |  | 3.5 µM | 36% | 
Cn1c(N)c(N)c(=O)[nH]c1=O | 82 µM | 800 s | 156 s | 4.5 µM |  | logP [9]: -1.4
Oc1nc(O)c2nc(O)[nH]c2n1 |  |  |  | 4.5 µM | 5% | inhibition [13]: 0.5%; inhibition [11]: 7%
Cn1c(=O)[nH]c2c(=O)[nH]c(=O)[nH]c21 |  |  |  | 5 µM | 9% | 
CCCCCCCCCCCCn1c(N)c(N)c(=O)[nH]c1=O | 0.27 µM | 3350 s | 102 s | 7 µM |  | 
CCCCCCCCCCCCCCCCNc1nc(O)nc(O)c1N | 0.9 µM | 2020 s | 150 s | 6.4 µM |  | 
CCCCCCCCCCCCCCCCn1c(O)nc2c(=O)[nH]c(=O)[nH]c21 | 0.75 µM |  |  | 4.5 µM |  | IC50 [10]: 8 µM; inhibition [11]: 10%
CCCCCCCCCCCCNc1c(N)nc(O)nc1O | 0.57 µM | 6000 s | 84 s | 4.5 µM |  | 
CCCCCCCCCCCCn1c(=O)n(C)c(=O)c2[nH]c(O)nc21 | 0.85 µM |  |  | 3 µM |  | IC50 [10]: 18 µM; inhibition [11]: 15%
CCCCCCCCCCCCn1c(O)nc2[nH]c(=O)[nH]c(=O)c21 | 1.6 µM |  |  | 27 µM |  | IC50 [10]: 200 µM; inhibition [11]: 10%
CCCCCCCCCCn1c(N)c(N)c(=O)[nH]c1=O | 0.28 µM | 3700 s | 114 s | 5.6 µM |  | logP [9]: 3.04
Cn1c(=O)[nH]c2[nH]c(=O)[nH]c2c1=O |  |  |  | 4.5 µM | 10% | inhibition [11]: 13%
Nc1[nH]c(=O)[nH]c(=O)c1N | 100 µM |  |  | 7 µM |  | logP [9]: -1.92
CCCCCCCCCCCCn1c(O)nc2c(=O)[nH]c(=O)[nH]c21 | 1 µM |  |  | 6.2 µM |  | IC50 [10]: 11 µM; inhibition [11]: 13%
Cn1c(=O)[nH]c2[nH]c(=O)n(C)c2c1=O |  |  |  | 14 µM | 14% | 
